The values that follow come from PubChem BioAssay (NCI).

Some test systems named below: TK-10 renal; OVCAR-5 ovarian; A549 NSCLC; SN12C renal; A498 renal; SF-539 CNS; HL-60(TB) leukemia; CAKI-1 renal; SW-620 colon.
Common to all, as to assay: inhibition of tumour cell growth, NCI panel, 48 h

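Briefly, cells in 96-well plates were exposed to five compound concentrations for 48 h, and endpoints were estimated by linear interpolation. GI50 = concentration required for 50% inhibition of growth. TGI: total growth inhibition.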 Bounds are passed on as bounds.

Consider `COC(=O)/C(=N\NC(=O)C[N+](C)(C)C)C(C(=O)OC)C(=O)C(=O)Nc1ccccc1C(N)=O` (stereo unspecified), for which the TGI with TK-10 renal, in the experiment with OVCAR-5 ovarian, in the experiment on A549 NSCLC, in the experiment with SN12C renal, with A498 renal and in the experiment with SF-539 CNS was more than 100 µM each time. The TGI with HL-60(TB) leukemia, in the experiment on CAKI-1 renal and in the experiment on SW-620 colon was more than 100 µM each time.

Consider `O=c1[nH]nc2ccccc2c1Cc1ccccc1`, for which the TGI in the experiment with TK-10 renal, with OVCAR-5 ovarian, with A549 NSCLC, in the experiment with SN12C renal, in the experiment with A498 renal and in the experiment with SF-539 CNS was more than 100 µM throughout. The TGI in the experiment on CAKI-1 renal and in the experiment on SW-620 colon was more than 100 µM each time.

As for `O=C(NC(=O)c1cn(CCN(CCO)C(=O)NCCCCCCNC(=O)N(CCO)CCn2cc(C(=O)NC(=O)OCc3ccccc3)c(=O)[nH]c2=O)c(=O)[nH]c1=O)OCc1ccccc1`, the TGI in the experiment on TK-10 renal, in the experiment with OVCAR-5 ovarian, in the experiment on A549 NSCLC, in the experiment with SN12C renal, in the experiment with SF-539 CNS and with HL-60(TB) leukemia was more than 100 µM throughout. Besides, the TGI in the experiment with CAKI-1 renal and in the experiment on SW-620 colon was more than 100 µM throughout.

Take `Clc1ccc(N=Nc2nc3ccccc3nc2N=Nc2ccc(Cl)cc2Cl)c(Cl)c1`: the TGI in the experiment on TK-10 renal was more than 100 µM; with A549 NSCLC, more than 100 µM; in the experiment on SN12C renal it was more than 100 µM; in the experiment on A498 renal it was more than 100 µM; with SF-539 CNS it was more than 100 µM; with HL-60(TB) leukemia, 90 µM. This compound showed a TGI in the experiment with SW-620 colon of more than 100 µM.

Consider `CCN(CC)CCOc1ccc(CCc2cc(OC)c(OC)c(OC)c2)cc1`, for which the TGI with TK-10 renal was 88.9 µM; in the experiment with OVCAR-5 ovarian, 65.3 µM; with A549 NSCLC, more than 100 µM; in the experiment with SN12C renal, more than 100 µM; with A498 renal it was 98.7 µM; in the experiment with SF-539 CNS, more than 100 µM. The TGI with HL-60(TB) leukemia was 44.4 µM; with CAKI-1 renal it was more than 100 µM; in the experiment with SW-620 colon, 46.8 µM.

As to `Cc1ccc(SSc2ccc(C)cc2C(=O)O)c(C(=O)O)c1`, the TGI in the experiment on TK-10 renal, with OVCAR-5 ovarian, in the experiment on A549 NSCLC, in the experiment on SN12C renal, in the experiment with A498 renal and in the experiment on SF-539 CNS was more than 100 µM throughout. Besides, the TGI in the experiment on HL-60(TB) leukemia, with CAKI-1 renal and with SW-620 colon was more than 100 µM throughout.

On to `C=CCNC(=O)N(CCCC(NC(C)=O)C(=O)NCc1ccccc1)Cc1ccccc1` (stereo unspecified), for which the TGI in the experiment on TK-10 renal, in the experiment on OVCAR-5 ovarian, in the experiment with A549 NSCLC, in the experiment with SN12C renal, in the experiment on A498 renal and in the experiment on SF-539 CNS was more than 100 µM each time. Besides, the TGI in the experiment on HL-60(TB) leukemia, with CAKI-1 renal and in the experiment with SW-620 colon was more than 100 µM in each case.

With `Cc1oc2c(C)c3oc(=O)cc(C)c3cc2c1CN1C(=O)C2OCCOCCOCCOCCOCCO[C@H]2C1=O` (stereo partly specified), the TGI in the experiment with TK-10 renal, in the experiment with OVCAR-5 ovarian, in the experiment with A549 NSCLC, in the experiment on SN12C renal, with A498 renal and with SF-539 CNS was more than 100 µM each time. In addition, the TGI in the experiment on HL-60(TB) leukemia, with CAKI-1 renal and in the experiment on SW-620 colon was more than 100 µM each time.

For the compound `COc1ccc2c(c1)[n+]([O-])c(-c1ccc(OC)c(OC)c1)c(N)[n+]2[O-]`, the TGI in the experiment on TK-10 renal, in the experiment with OVCAR-5 ovarian, in the experiment with A549 NSCLC, with SN12C renal, in the experiment with A498 renal and in the experiment on SF-539 CNS was more than 100 µM throughout. Also, the TGI is more than 100 µM in the experiment on HL-60(TB) leukemia, 72.2 µM with CAKI-1 renal and more than 100 µM with SW-620 colon.

Consider `COC1OC(CBr)C(OC(=O)c2ccccc2)C(O)C1Br` (stereo unspecified), for which the TGI with TK-10 renal, with OVCAR-5 ovarian, in the experiment with A549 NSCLC, with SN12C renal, with A498 renal and in the experiment with SF-539 CNS was more than 100 µM in each case. For the same compound, the TGI with HL-60(TB) leukemia, with CAKI-1 renal and in the experiment with SW-620 colon was more than 100 µM each time.

As to `O=C1NC2(CCCCCC2)C2CCCCCCC12O` (stereo unspecified), the TGI with TK-10 renal, in the experiment on OVCAR-5 ovarian, with A549 NSCLC, in the experiment on SN12C renal, in the experiment with A498 renal and in the experiment on SF-539 CNS was more than 100 µM throughout. Besides, the TGI with HL-60(TB) leukemia, in the experiment on CAKI-1 renal and with SW-620 colon was more than 100 µM throughout.

In the case of `Cc1cc2c(C)nn(Cc3ccccc3)c2c(C(N)=O)c1C`, the TGI in the experiment with TK-10 renal, in the experiment with OVCAR-5 ovarian, in the experiment with A549 NSCLC, in the experiment on SN12C renal, with A498 renal and in the experiment with SF-539 CNS was more than 100 µM throughout. The same compound displayed a TGI in the experiment on SW-620 colon of more than 100 µM.

With `c1ccc(C(c2ccccc2)c2cccnc2)cc1`, the TGI in the experiment with TK-10 renal, in the experiment with OVCAR-5 ovarian, with A549 NSCLC, in the experiment with SN12C renal, in the experiment with A498 renal and in the experiment on SF-539 CNS was more than 100 µM each time. Further, the TGI in the experiment with CAKI-1 renal and in the experiment on SW-620 colon was more than 100 µM in each case.

As to `Cc1cc(NCCCCCCNc2cc(C)nc3cc(N(C)C)ccc23)c2ccc(N(C)C)cc2n1`, the TGI with TK-10 renal is more than 100 µM; in the experiment with OVCAR-5 ovarian, more than 100 µM; in the experiment on SN12C renal, more than 100 µM; in the experiment with A498 renal it was more than 100 µM; with SF-539 CNS, more than 100 µM; in the experiment with HL-60(TB) leukemia, 8.52 µM. Further, the TGI in the experiment with CAKI-1 renal and with SW-620 colon was more than 100 µM each time.

With `C1COCCN1.C1COCCN1.NC1CCCCC1N.[Cl-].[Pt+2]` (stereo unspecified), the GI50 in the experiment on TK-10 renal, in the experiment on OVCAR-5 ovarian, in the experiment with A549 NSCLC, in the experiment with SN12C renal, in the experiment with A498 renal and in the experiment with SF-539 CNS was more than 100 µM each time. For the same compound, the GI50 in the experiment with HL-60(TB) leukemia, with CAKI-1 renal and in the experiment with SW-620 colon was more than 100 µM each time. The TGI in the experiment on TK-10 renal, in the experiment with OVCAR-5 ovarian, in the experiment on A549 NSCLC, in the experiment on SN12C renal, with A498 renal and in the experiment with SF-539 CNS was more than 100 µM in each case. Further, the TGI in the experiment with HL-60(TB) leukemia, with CAKI-1 renal and in the experiment on SW-620 colon was more than 100 µM throughout.
